Measured values published in US8350084B2, “Alpha-(N-sulfonamido)acetamide compound as an inhibitor of beta amyloid peptide production” (priority 2007, dated 2013).
“Also recorded” adds a separate entry of the source.

Columns and labels:
[1] = biological target: T1, human pregnane-X receptor (Homo sapiens, UniProt O75469); experiment: PXR transactivation assay; assay type: cell-based; settings: hPXR transactivation, transfected HepG2 cells
T1 construct: expressed in transfected cells; host or cells: HepG2 cells (ATCC), transient transfection with Lipofectamine 2000
T1 sequence (O75469 1-434): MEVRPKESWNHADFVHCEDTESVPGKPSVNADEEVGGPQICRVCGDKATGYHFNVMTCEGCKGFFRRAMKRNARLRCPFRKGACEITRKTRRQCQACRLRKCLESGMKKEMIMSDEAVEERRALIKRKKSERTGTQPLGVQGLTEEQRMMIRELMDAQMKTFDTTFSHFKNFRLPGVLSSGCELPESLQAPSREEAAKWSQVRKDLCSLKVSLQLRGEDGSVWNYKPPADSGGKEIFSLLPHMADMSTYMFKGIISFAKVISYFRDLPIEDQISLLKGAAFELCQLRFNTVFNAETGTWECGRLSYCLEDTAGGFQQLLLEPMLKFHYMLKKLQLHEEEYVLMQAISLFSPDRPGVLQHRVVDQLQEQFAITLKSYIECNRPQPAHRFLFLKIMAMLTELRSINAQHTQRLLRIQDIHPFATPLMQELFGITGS
Excerpt: Pregnane X receptor (PXR) is a nuclear hormone receptor principally responsible for the induction of cytochrome P450 (CYP) 3A4, which plays a major role in metabolizing many clinically prescribed drugs. It is well known that the induction of CYP3A4 can cause either drug-drug interaction by increasing the metabolic clearance of co-administered CYP3A4 substrates (Bertilsson, G. et al., Proc. Nat. Acad. Sci. USA (1998) 95: 12208-12213; Lehmann, J. M. et al., J. Clin. Invest. (1998) 102: 1016-1023) or can cause loss of drug exposure due to autoinduction. Characterizing the induction potential of discovery or development drug candidates has become an important screen throughout the pharmaceutical industry. A PXR transactivation assay is used to assess the induction potential of CYP3A4, and a cytotoxicity assay of HepG2 cells is used to monitor the assay interference due to cytotoxicity.
Cell culture medium used is DMEM. Lipofectamine 2000, PBS, trypsin-EDTA (0.25%), and penicillin-streptomycin were purchased from GIBCO/Invitrogen (Carlsbad, Calif.). […]
Cells in each flask are washed with PBS and 4 mL of Trypsin-EDTA (0.25%) is added and incubated for one minute at room temperature. […] Cells are then counted and diluted in media to 3.0×10^5 cells/mL. […] After fifteen minutes, plates are read on a Viewlux (Perkin-Elmer) plate reader. […]

[2] = tested on: γ-secretase inhibitor binding sites in the brain; experiment: Gamma-secretase site occupancy in rat brain; assay type: in vivo; settings: single dose 1 mg/kg, by 24 hours
Protocol: (§1) Female Harlan Sprague-Dawley rats (˜200-250 g) were dosed daily by oral gavage with a dosing vehicle of 99% PEG-400, 1% Tween-80 at 4 mL/kg in the morning. […] Plasma was obtained after centrifugation. […] CSF samples were centrifuged to remove cells or debris prior to dilution at 1:2 in 4% BSA and frozen for subsequent analysis.
Brain sections were cut coronally at a thickness of 20 μm on a cryostat and thaw-mounted onto Superfrost Plus slides. Sections were saved at the level of the rostral hippocampus, with 3 sections per slide at intervals of about 120 μm, and frozen at −20° C. until use. For occupancy studies, brain sections were warmed to room temperature, dried, incubated for 10 minutes in 50 mM HEPES buffer, pH 7.4, then transferred to the same buffer containing 1.5 nM [^3H]IN973 (Goldstein, M. E. et al., J. Pharmacol. Exp. Ther. (2007) 323:102-108) or [^3H] (R)-4-((N-(1-amino-4-methyl-1-oxopentan-2-yl)-4-chlorophenylsulfonamido)methyl)-N-(2-methoxyethyl)benzamide and incubated at room temperature for 10 minutes. To define nonspecific binding, adjacent sections were incubated in buffer containing [^3H]IN973 or [^3H] […] Optical densities (expressed as digital light units per square millimeter) over areas of interest were measured and expressed as a percent of vehicle control.

proximal duodenum = experiment: Rat duodenum histopathology (GI toxicity); assay type: in vivo; settings: 100 mg/kg/day once daily for 4 days
Protocol: as §1
Following euthanasia by CO2 asphyxiation, approximately 3 cm long sections of the proximal duodenum were removed from the abdomen, rinsed with ice cold Phosphate buffered saline and placed into 10% buffered formalin prior to sectioning. Tissue sections of the duodenum were embedded in liquid paraffin, mounted onto blocks, and cut into triplicate sagittal (cross-luminal) ring sections and stained using the Periodic acid Schiff's base method prior to microscopic evaluation. All animals survived until scheduled necropsy was performed.

CYP3A4 mRNA = settings: human, 3 days, 20 μM
Protocol: Fa2N-4 cells and MFE Support Media F were provided by XenoTech, LLC (Lenexa, Kans.).
Fa2N-4 cells were supplied on 12-well, collagen-coated plates at a seeding density of 0.67×10^6 cells per well. Upon the receipt of the cells, the media were changed and the cells maintained overnight in a humidified, CO2-supplied incubator. After this adaptation period, the cells were examined under a light microscope and a determination was made as to whether the cells were morphologically normal and suitable for use. During the treatment period, the cells were visually inspected on a daily basis; cellular morphology, confluency, and signs of toxicity due to the test article were documented as necessary. […] Fa2N-4 cells were exposed to the test articles for a total of 3 days. The culture medium was replaced daily with fresh medium containing the test articles. After a total of ˜72 hours of exposure, medium was aspirated and the cells washed once with warm phosphate buffered saline solution before adding the cell lysis buffer (Qiagen, Valencia, Calif.).

mouse Notch1-ΔE = settings: Notch IC50 / Aβ40 IC50, 95% CI=163-232
Protocol: Since inhibition of Notch signaling causes undesired, mechanism-based side effects, a cellular assay for Notch1-ΔE signaling was used to counterscreen γ-secretase inhibitors.
Hela cells were maintained in DMEM (GibcoBRL) containing 10% FBS (GibcoBRL), Penicillin/Streptomycin (GibcoBRL) and 2 mM L-glutamine (GibcoBRL). Cells were transiently transfected using TransIT-HelaMONSTER (Mires) according to the manufacturer's directions. Hela cells (ATCC) were plated 16 hours before transfection at a density of 4×10^6 cells per T175 flask in Hela growth media (DMEM (high glucose with HEPES) with glutamine, penicillin, streptomycin and 10% fetal bovine serum). […] Cells were plated into 96 well black Clearview plates (Packard) at a volume of 200 μL/well (1×10^4 cells) and incubated at 37° C. for 1.5 hours to allow cells to adhere to the plates. Test compounds were initially diluted in a 96 well polypropylene plate in 100% DMSO. […] Diluted compound solutions (10 μL) were added to the cell plate yielding a final 0.1% DMSO concentration. Cell plates containing compound were incubated overnight at 37° C. […] The plate was incubated at room temperature for 10 minutes before black backing was attached to the bottom of the plate and the signal was read on a TopCount (Packard). […]

[3] = female, Sprague-Dawley, rat, in vivo
Protocol: Animals were euthanized 12 or 24 hours after the third dose or 5 hours after the fourth dose.

brain Aβ40 = experiment: Rat brain Abeta40 assay (252-TSD ELISA); settings: for Terminal Brain Abeta 40 5 hr: 5 hr after fourth dose; for Terminal Brain Abeta 40 12 hr: 12 hr after third dose; for Terminal Brain Abeta 40 24 hr: 24 hr after third dose

Structure (SMILES): NC(=O)[C@@H](CCC(F)(F)F)N(Cc1ccc(-c2ncon2)cc1F)S(=O)(=O)c1ccc(Cl)cc1 [(2R)-2-[[(4-chlorophenyl)sulfonyl][[2-fluoro-4-(1,2,4-oxadiazol-3-yl)phenyl]methyl]amino]-5,5,5-trifluoropentanamide]
- EC20A (20% of the Rifampicin response at 10 μM) [1]: 6.9 µM
- EC60A (60% of the Rifampicin response at 10 μM) [1]: greater than 16.7 μM
- brain γ-secretase site occupancy [2]: gradually returned to baseline values
- histological evaluation of duodenal tissue (proximal duodenum): ⅓ rats dosed with 100 mg/kg/day had mild lesions; also recorded: slight goblet cell metaplasia
- induction as % of the induction response caused by rifampicin (CYP3A4 mRNA): 22%
- Notch/APP selectivity (mouse Notch1-ΔE): 193 X
- compound exposures after 3 doses relative to exposures after the initial dose [3]: ≤ 2 fold
- Terminal Brain Abeta 40 5 hr (brain Aβ40; Study No. 1, 3 mg/kg/day): 39% Veh
- Terminal Brain Abeta 40 12 hr (brain Aβ40; Study No. 1, 3 mg/kg/day): 35% Veh
- Terminal Brain Abeta 40 24 hr (brain Aβ40; Study No. 1, 3 mg/kg/day): 92% Veh
- Terminal Brain Abeta 40 5 hr (brain Aβ40; Study No. 1, 10 mg/kg/day): 12% Veh
- Terminal Brain Abeta 40 12 hr (brain Aβ40; Study No. 1, 10 mg/kg/day): 9% Veh
- Terminal Brain Abeta 40 24 hr (brain Aβ40; Study No. 1, 10 mg/kg/day): 28% Veh
- Terminal Brain Abeta 40 5 hr (brain Aβ40; Study No. 1, 30 mg/kg/day): 8% Veh
- Terminal Brain Abeta 40 12 hr (brain Aβ40; Study No. 1, 30 mg/kg/day): 9% Veh
- Terminal Brain Abeta 40 24 hr (brain Aβ40; Study No. 1, 30 mg/kg/day): 13% Veh
- Terminal Brain Abeta 40 5 hr (brain Aβ40; Study No. 2, 3 mg/kg/day): 16% Veh
- Terminal Brain Abeta 40 12 hr (brain Aβ40; Study No. 2, 3 mg/kg/day): 34% Veh
- Terminal Brain Abeta 40 24 hr (brain Aβ40; Study No. 2, 3 mg/kg/day): 94% Veh
- Terminal Brain Abeta 40 5 hr (brain Aβ40; Study No. 2, 10 mg/kg/day): 6% Veh
- Terminal Brain Abeta 40 12 hr (brain Aβ40; Study No. 2, 10 mg/kg/day): 4% Veh
- Terminal Brain Abeta 40 24 hr (brain Aβ40; Study No. 2, 10 mg/kg/day): 23% Veh
- Terminal Brain Abeta 40 5 hr (brain Aβ40; Study No. 2, 30 mg/kg/day): 6% Veh
- Terminal Brain Abeta 40 12 hr (brain Aβ40; Study No. 2, 30 mg/kg/day): 4% Veh
- Terminal Brain Abeta 40 24 hr (brain Aβ40; Study No. 2, 30 mg/kg/day): 15% Veh
- Terminal Brain Abeta 40 5 hr (brain Aβ40; Study No. 2, 100 mg/kg/day): 3% Veh
- Terminal Brain Abeta 40 12 hr (brain Aβ40; Study No. 2, 100 mg/kg/day): 3% Veh
- Terminal Brain Abeta 40 24 hr (brain Aβ40; Study No. 2, 100 mg/kg/day): 7% Veh
- Day 7 5 hr Brain Aβ40 (brain Aβ40; Study No. 3, 30 mg/kg/day): 13% Veh
- Day 7 5 hr Brain Aβ40 (brain Aβ40; Study No. 3, 300 mg/kg/day): 13% Veh
